The conditions of this data set: Crystal 1; Chromatography.

Structures are written as SMILES. Numbers after ± are expanded uncertainties.

Consider `O=C(O)[C@H](O)[C@@H](O)C(=O)O` [(2R,3R)-2,3-dihydroxybutanedioic acid], for which the Normal melting temperature came out at 170.20 ± 1 °C.

Turning to `O=C(O)[C@H](O)[C@@H](O)C(=O)O` (relative stereo) [(R*,R*)-2,3-dihydroxybutanedioic acid], the Normal melting temperature was 206.00 °C.
